# Tested on: Aβ42 production
# Experiment: Quantification of Aβ peptide in culture of neurons from rat fetus brain (Aβ42 ELISA)
# Format: cell-based
# Settings: Neuron, 72 h, rat primary neuronal culture (embryonic day 18 Wistar rat cerebral cortex), medium collected three days after addition of compound, read-out: Aβ42 production reducing effect IC50
# How it was run: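 Primary cortical neurons from E18 Wistar rat embryos, cultured 4 days in Neurobasal/B27/2-ME, then treated 3 days with compound in Neurobasal/B27 (final DMSO 1% or less; DMSO control). Conditioned medium collected; Aβx-42 measured undiluted by sandwich ELISA kit.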
row,Compound,IC50 [nM]
1,"NC1=N[C@@]2(c3cc(NC(=O)c4ccc(Cl)cn4)ccc3F)COCC[C@H]2CS1 (single isomer, unassigned) [Example 49, N-[3-((4aR*,8aS*)-2-amino-4,4a,5,6-tetrahydro-7-oxa-3-thia-1-azanaphthalen-8a-yl)-4-fluorophenyl]-5-chloropyridine-2-carboxamide]",2
2,"COC[C@H]1C[C@H]2CSC(N)=N[C@@]2(c2cc(NC(=O)c3ccc(Cl)cn3)ccc2F)CO1 (relative stereo) [Example 13, N-[3-((4aR*,6R*,8aS*)-2-amino-6-methoxymethyl-4,4a,5,6-tetrahydro-7-oxa-3-thia-1-azanaphthalen-8a-yl)-4-fluorophenyl]-5-chloropyridine-2-carboxamide]",1
3,"N#Cc1ccc(C(=O)Nc2ccc(F)c([C@]34CO[C@@H](C(F)(F)F)C[C@H]3CSC(N)=N4)c2)nc1 (relative stereo) [Example 35, N-[3-((4aR*,6R*,8aS*)-2-amino-6-trifluoromethyl-4,4a,5,6-tetrahydro-7-oxa-3-thia-1-azanaphthalen-8a-yl)-4-fluorophenyl]-5-cyanopyridine-2-carboxamide]",2.1
4,"C[C@H]1SC(N)=N[C@@]2(c3cc(NC(=O)c4cnc(C(F)F)cn4)ccc3F)COCC[C@@H]12 (relative stereo) [Example 32, N-[3-((2R*,4aR*,8aS*)-2-amino-4-methyl-4,4a,5,6-tetrahydro-7-oxa-3-thia-1-azanaphthalen-8a-yl)-4-fluorophenyl]-5-difluoromethylpyrazine-2-carboxamide]",3
5,"C[C@H]1COC[C@]2(c3cc(NC(=O)c4ccc(Cl)cn4)ccc3F)N=C(N)SC[C@H]12 (relative stereo) [Example 26, N-[3-((4aR*,5R*,8aS*)-2-amino-5-methyl-4,4a,5,6-tetrahydro-7-oxa-3-thia-1-azanaphthalen-8a-yl)-4-fluorophenyl]-5-chloropyridine-2-carboxamide]",3
6,"NC1=N[C@@]2(c3cc(-c4cccnc4F)cs3)COCC[C@H]2CS1 (racemic) [Example 65, (±)-(4aR*,8aR*1-8a-[4-(2-fluoropyridin-3-yl)-thiophen-2-yl]-4,4a,5,6,8,8a-hexahydro-7-oxa-3-thia-1-azanaphthalen-2-ylamine]",370

# Reference: US20110207723A1, “NOVEL FUSED AMINODIHYDROTHIAZINE DERIVATIVE” (EISAI R&D MANAGEMENT CO., LTD., priority 2008, published 2011)
